Measurements reported in publication PMC7082846 (ACS infectious diseases, 2019).
Values after ≈ are worked out from the molar mass of the structure shown. Values joined by “and” are separate entries in the source; they are usually repeats but may differ in a detail not shown here. Equal entries are not always repeated.

Columns and labels:
[1] = test system: PBMC-derived dendritic cells; test: Cytokine mRNA induction; conditions: BNBC 100 μM or LPS 10 μg/ml, 6 h
[2] = test system: PBMC-derived dendritic cells; test: CD80 expression by flow cytometry in PBMC-derived dendritic cells; assay type: cell-based, human; conditions: BNBC 50 μM or LPS 10 μg/ml, 48 h; gated from CD11c+ cells
human STING [3] = biological target: T1, human STING (Homo sapiens, UniProt Q86WV6); test: Cytokine mRNA induction; assay type: cell-based; conditions: 6 h, qRT-PCR
T1 sequence (Q86WV6 whole entry): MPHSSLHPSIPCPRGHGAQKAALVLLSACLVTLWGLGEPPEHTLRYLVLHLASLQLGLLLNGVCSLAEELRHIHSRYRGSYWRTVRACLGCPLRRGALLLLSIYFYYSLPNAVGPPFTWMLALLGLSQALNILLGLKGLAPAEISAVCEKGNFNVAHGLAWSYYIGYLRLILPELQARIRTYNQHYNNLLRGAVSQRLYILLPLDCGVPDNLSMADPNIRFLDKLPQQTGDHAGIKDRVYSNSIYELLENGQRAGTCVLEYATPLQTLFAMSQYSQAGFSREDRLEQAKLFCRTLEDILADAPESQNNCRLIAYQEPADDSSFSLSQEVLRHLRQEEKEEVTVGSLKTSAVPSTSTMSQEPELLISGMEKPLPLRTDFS

Dengue virus (DENV) = assay type: cell-based, dengue virus (serotype 2, New Guinea C strain); conditions: THF cells pre-treated 8 h
Zika virus (ZIKV) = test: Antiviral assay, pre-treated THF cells infected with ZIKV; assay type: cell-based, Zika virus (PRVABC59 strain); conditions: THF cells pre-treated 8 h
Yellow fever virus (YFV) = assay type: cell-based, Yellow fever virus (17D strain); conditions: THF cells pre-treated 8 h
human PBMCs = test: Cytokine mRNA induction; conditions: 6 h, qRT-PCR
mouse STING = biological target: T2, mouse STING (Mus musculus, UniProt Q3TBT3); test: IFN-β mRNA induction; assay type: cell-based; conditions: HepG2/mSTING cells, 6 h, qRT-PCR
T2 sequence (Q3TBT3 1-378): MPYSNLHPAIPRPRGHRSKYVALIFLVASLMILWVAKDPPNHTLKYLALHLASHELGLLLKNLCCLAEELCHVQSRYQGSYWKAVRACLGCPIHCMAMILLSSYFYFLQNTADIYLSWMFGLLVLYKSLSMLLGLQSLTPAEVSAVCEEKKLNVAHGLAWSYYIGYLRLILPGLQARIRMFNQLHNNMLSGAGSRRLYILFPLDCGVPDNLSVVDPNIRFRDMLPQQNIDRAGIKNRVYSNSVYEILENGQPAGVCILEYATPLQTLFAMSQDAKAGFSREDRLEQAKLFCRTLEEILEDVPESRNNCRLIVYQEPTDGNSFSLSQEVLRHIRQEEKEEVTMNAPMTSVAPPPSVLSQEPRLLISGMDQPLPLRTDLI

THF cells [4] = test: Cytotoxicity in THF cells; assay type: cell-based, human
[5] = test system: cytochrome P450 (Cyp) enzymes (CYP1A2, 2A6, 2B6, 2C8, 2C9, 2C19, 2D6, CYP2E1 and 3A4); test: Cytochrome P450 inhibition panel; assay type: in vitro ADME; conditions: inhibition = greater than 50% inhibition at 10 μM
Caco-2 permeability = assay type: in vitro ADME; conditions: human
[6] = Plasma protein binding, mouse; assay type: in vitro ADME
cGAS-STING pathway = test: ISG54 luciferase reporter assay in HepAD38/cGAS-STING/ISG54Luc cells; assay type: cell-based, human; conditions: 4 h treatment
human STING [7] = biological target: T1, human STING; test: IRF3 phosphorylation; assay type: cell-based; conditions: 100 μM, 2 h; HepG2/STING vs HepG2/STINGΔC cells
THF cells [8] = test: Cytokine response
[9] = Aqueous solubility in PBS; assay type: physicochemical
[10] = Metabolic stability in human liver microsomes; assay type: in vitro ADME
[11] = biological target: human STING with truncation of carboxyl-terminal domain (CTD) (Homo sapiens, UniProt Q86WV6); test: ISG54 luciferase reporter assay in HepAD38/cGAS-STINGΔC/ISG54Luc cells; assay type: cell-based; conditions: 4 h treatment
human STING with truncation of carboxyl-terminal domain (CTD), sequence (Q86WV6 1-340 limits assumed): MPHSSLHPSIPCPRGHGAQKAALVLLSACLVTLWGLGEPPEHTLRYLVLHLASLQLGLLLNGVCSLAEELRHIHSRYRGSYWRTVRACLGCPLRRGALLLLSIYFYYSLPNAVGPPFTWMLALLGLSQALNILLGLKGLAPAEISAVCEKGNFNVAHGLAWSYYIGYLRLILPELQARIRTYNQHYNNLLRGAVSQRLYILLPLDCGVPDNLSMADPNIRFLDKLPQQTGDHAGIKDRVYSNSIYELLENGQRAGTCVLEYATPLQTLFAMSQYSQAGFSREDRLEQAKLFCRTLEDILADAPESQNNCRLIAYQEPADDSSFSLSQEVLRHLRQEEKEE

[12] = Metabolic stability in mouse liver microsomes; assay type: in vitro ADME
human STING [13] = biological target: T1, human STING; test: ISG54 luciferase reporter assay in HepG2/STING/ISG54Luc cells; assay type: cell-based
[14] = test system: HepAD38/cGAS-STING/ISG54Luc cells; assay type: cell-based; conditions: human, 4 h
[15] = Plasma protein binding, human; assay type: in vitro ADME
[16] = MOI 0.1, 48 h, qRT-PCR, maximal reduction

Question: For “Lipopolysaccharides [LPS, reference compound]”, which “Induction of cytokine mRNAs” value [1] is on record?
Answer: Its value is “efficiently induced the expression of IFN-β and IL-29 mRNAs and to a lesser extent, TNF-α and IL-6 mRNAs”.

Question: What about the “Induction of CD80 expression” value [2] of the same molecule?
Answer: The value was “significantly induced expression of CD80”.

Question: With Cc1ccc2c(=O)c3cccc(CC(=O)O)c3oc2c1C [DMXAA, 5’,6’-dimethylxanthenone-4-acetic acid, reference compound] as the molecule, how does the “Induction of IFN-β mRNA expression” value (human STING [3]; HepG2/STING cells expressing human STING) read?
Answer: Its value is “not in HepG2/STING cells”.

Question: Which “Reduction of DENV RNA” value (Dengue virus (DENV); compared with BNBC) does the source give for O=C(NCc1ccco1)c1ccc2c(c1)N(Cc1c(F)cccc1Cl)C(=O)CS2 [G10, reference compound] here?
Answer: Its value is “reduced virial RNAs in similar potencies”.

Question: And the “Reduction of ZIKV RNA” value (Zika virus (ZIKV); compared with BNBC)?
Answer: Its value is “reduced virial RNAs in similar potencies”.

Question: What about the “Reduction of YFV RNA” value (Yellow fever virus (YFV); compared with BNBC) of the same molecule?
Answer: The value was “reduced virial RNAs in similar potencies”.

Question: For O=C(Nc1cccc2ccccc12)c1cc2c(cc1Br)OCO2 [BNBC, 6-bromo-N-(naphthalen-1-yl)benzo[d][1,3]dioxole-5-carboxamide], which “Induction of cytokine expression” value (human PBMCs) is on record?
Answer: The value was “efficiently induced expression of type I and type III IFN, but to a lesser extent, TNF-α”.

Question: And the “Induction of cytokine mRNAs” value [1]?
Answer: Its value is “efficiently induced the expression of IFN-β and IL-29 mRNAs and to a lesser extent, TNF-α and IL-6 mRNAs”.

Question: And the “Induction of IFN-β mRNA expression” value (mouse STING)?
Answer: The value was “not in parental HepG2 cells, HepG2/STINGΔC cells and HepG2-derived cell line expressing mouse STING (HepG2/mSTING)”.

Question: What about the “Induction of IFN-β, IL29 (IFN-λ1) and TNF-α mRNA expression” value (human STING [3]; HepG2/STING cells) of the same molecule?
Answer: The value was “concentration-dependently induced IFN-β, IL29 (IFN-λ1) and TNF-α mRNA expression”.

Question: And the “Reduction of intracellular DENV RNA level” value (Dengue virus (DENV); [16])?
Answer: Its value is “up to 90 fold”.

Question: And the “Cytotoxicity” value (THF cells [4])?
Answer: Its value is “absence of cytotoxicity”.

Question: What about the “Cyp IC50 < 10 μM (number of Cyps/reactions inhibited out of 10)” value [5] of the same molecule?
Answer: Its value is 5 out of 10 and 5/10.

Question: And the Papp A→B (Caco-2 permeability)?
Answer: The Papp A→B was 14.5 ×10⁻⁶ cm/s.

Question: What about the Papp B→A (Caco-2 permeability) of the same molecule?
Answer: The Papp B→A was 5.98 ×10⁻⁶ cm/s.

Question: What about the efflux ratio (Caco-2 permeability) of the same molecule?
Answer: Its efflux ratio is 0.41.

Question: And the fraction unbound [6]?
Answer: The fraction unbound was 0.0212.

Question: What about the “Induction of ISG54-driven luciferase expression” value (cGAS-STING pathway) of the same molecule?
Answer: Its value is “induced luciferase expression in a concentration-dependent manner”.

Question: And the “IRF3 phosphorylation and nuclear translocation” value (human STING [7])?
Answer: Its value is “only induced IRF3 phosphorylation and nuclear translocation in HepG2/STING cells”.

Question: What about the “Reduction of intracellular ZIKV RNA level” value (Zika virus (ZIKV); [16]) of the same molecule?
Answer: Its value is ≤ 800 fold.

Question: And the “Effect of STING knockout on compound-induced IFN-β mRNA expression” value (THF cells [8]; THF cells with knockout of STING, but not TRIF or IPS-1 (MAVS), 50 μM, 6 h)?
Answer: The value was “completely abolished”.

Question: What about the “Induction of cytokine mRNA and IFN-β secretion” value (THF cells [8]; THF cells, mRNA 6 h, ELISA 18 h) of the same molecule?
Answer: Its value is “concentration-dependently induced IFN-β, IL-28A and IL-6 mRNA expression as well as secretion of IFN-β into culture media”.

Question: And the solubility ([9]; pH 4, aqueous buffer)?
Answer: The solubility was 3.57 µM (≈ 1.32 µg/mL).

Question: And the solubility ([9]; pH 7.4, aqueous buffer)?
Answer: Its solubility is 2.62 µM (≈ 0.97 µg/mL).

Question: What about the “Reduction of intracellular YFV RNA level” value (Yellow fever virus (YFV); [16]) of the same molecule?
Answer: The value was ≤ 150 fold.

Question: What about the half-life [10] of the same molecule?
Answer: The half-life was 20 min.

Question: And the “Induction of ISG54-driven luciferase expression” value [11]?
Answer: Its value is “did not induce luciferase expression”.

Question: What about the half-life [12] of the same molecule?
Answer: Its half-life is 2.21 min.

Question: What about the “Induction of CD80 expression” value [2] of the same molecule?
Answer: The value was “significantly induced expression of CD80”.

Question: What about the “Induction of ISG54 promoter-driven luciferase expression” value (human STING [13]; HepG2/STING/ISG54 reporter cells lacking cGAS) of the same molecule?
Answer: The value was “concentration-dependently induced ISG54 driven luciferase expression”.

Question: What about the MinEC5X (human STING [13]; Minimum Effective Concentration to induce 5-fold luciferase activity relative to mock-treated control, HepG2/STING/ISG54Luc cells, 4 h) of the same molecule?
Answer: The MinEC5X was 2.2 µM.

Question: What about the “Maximum induction (fold)” value (human STING [13]; maximum fold of luciferase induction, HepG2/STING/ISG54Luc cells, 4 h) of the same molecule?
Answer: Its value is 20.5 fold.

Question: And the “Cytotoxicity: concentration up to which no cytotoxicity was detected” value [14]?
Answer: The value was > 200 µM.

Question: What about the fraction unbound [15] of the same molecule?
Answer: Its fraction unbound is 0.0266.
